Tests used:
FGF-1 = FGF-1 (Homo sapiens, UniProt P05230); test: SPR based solution affinity assay, growth factor binding (FGF-1); conditions: heparin-coated sensorchip, HBS-EP buffer, 25° C.; read-out: Kd aFGF
Protocol: (§1) Binding affinities of ligands for the growth factors FGF-1, FGF-2 and VEGF were measured using a surface plasmon resonance (SPR) based solution affinity assay. The principle of the assay is that heparin immobilised on a sensorchip surface distinguishes between free and bound growth factor in an equilibrated solution of the growth factor and a ligand. Upon injection of the solution, the free growth factor binds to the immobilised heparin, is detected as an increase in the SPR response and its concentration thus determined. A decrease in the free growth factor concentration as a function of the ligand concentration allows for the calculation of the dissociation constant, Kd. It is important to note that ligand binding to the growth factors can only be detected when the interaction involves the HS binding site, thus eliminating the chance of evaluating non-specific binding to other sites on the protein. A 1:1 stoichiometry has been assumed for all protein:ligand interactions.
(§2) For the testing of growth factor binding activity, heparin-coated sensorchips were used. Their preparation, via immobilisation of biotinylated BSA-heparin on a streptavidin-coated sensorchip, has been described.[5] Heparin has also been immobilised via aldehyde coupling using either adipic acid dihydrazide or 1,4-diaminobutane. […] Ligands binding to FGF-1 and VEGF were measured in HBS-EP buffer (10 mM HEPES, pH 7.4, 150 mM NaCl, 3.0 mM EDTA and 0.005% (v/v) polysorbate 20), while binding to FGF-2 was measured in HBS-EP buffer containing 0.3 M NaCl.[5] […] For each assay mixture, 50-200 μL of solution was injected at 5-40 μL/min and the relative binding response measured. […]
(§3) Sensorgram data were analysed using the BIAevaluation software (BIAcore). […]
(§4) [formula] and the binding equation[5] can be expressed as
(§5) The Kd values given are the values fit, using the binding equation, to a plot of [P] versus [L]total. Where Kd values were measured in duplicate, the values represent the average of the duplicate measurements. […]

[1] = Pharmacokinetic studies of 35S-labelled compounds after iv administration; conditions: rat; for AUC0-12 h / C0 / Cl* (apparent) / Vd* (apparent) / t1/2* (apparent): in vivo, iv, 2.5 mg/kg; for k* (apparent): iv bolus 2.5 mg/kg
Protocol: The polyol precursors for PG500, 501, 503, 504, 506 and PI-88 (2 mg of each) were desiccated under vacuum over P2O5 for 3 days. Into each vial was syringed 50 μL of a stock solution of 1.77 mg (2.0 mCi) of ^35SO3.pyridine complex and 2 mg SO3.Me3N in 300 μL of anhydrous DMF (Aldrich, redried over freshly ignited 3 A molecular sieves). A further 600 μL of anhydrous DMF was added to the SO3 vial and was distributed to each sample vial. The samples were heated to 60° for 66 hr. SO3.Me3N (14 mg in 300 μL anhydrous DMF) was added to each vessel and the resulting solutions were heated to 60° overnight. The vials were cooled to room temperature and stored at −80° C. awaiting purification.
Each sample was quenched by addition of Na2CO3 (sat. aqu. adjusted to pH 8-9), evaporated to dryness and subjected to SEC (Biogel P2, 2.6×90 cm, flow rate 30 mL/hr, 5 min/fraction). Fractions containing desired material were detected using a G-M counter and DMB test followed by CE.
Male Sprague Dawley rats (250-350 g) were used. The animals were allowed free access to food and water before and during the experiments, during which they were maintained unrestrained in metabolism cages. Rats were anaesthetized with isoflurane (Forthane®). A catheter was inserted in the external jugular vein via an incision in the neck, and was passed under the skin to a second incision in the skin of the back (midline vicinity of the scapulae). This was then exteriorized with the protection of a light metal spring. The incision was closed and the spring fixed to the skin with Michel sutures so that the rats had full range of movement. The animals were carefully monitored during recovery (1-4 h).
All doses were administered as a bolus intravenous injection of 2.5 mg/kg in a dose volume of 2 mL/kg. The total amount of radioactivity administered to each rat was 0.5-10 μCi. The dose level used in this study is 10-fold lower than the no-effect dose previously established for acute toxicity of PI-88. Blood samples (˜250 μL) were collected predose and at 5, 15, 30, 45 min, and 1, 1.5, 2, 4, 8, 12, 24, 36 and 48 h after dosing. The blood samples were immediately centrifuged and the plasma collected. At completion of the experiments, the animals were killed by a lethal overdose of IV pentobarbitone anaesthetic (Nembutal®). Urine was collected from each animal at intervals of 0-12 h, 12-24 h and 24-48 h after dosing. Cage washings (˜15 mL of deionised water) were also collected. At the end of the experiment, bladder contents were aspirated from each animal and added to the 24-48 h voidings. Feces were collected over the same time intervals as the urine.
Aliquots of plasma (100 μL), urine and cage washings (500 μL) were transferred directly to 6 mL polypropylene scintillation vials for determination of radioactivity. Feces collected during each time period (from one animal dosed with each compound) were weighed and homogenised in 4 volumes of deionised water using a mechanical homogeniser. Approximately 1 g (accurately weighed) of this slurry was transferred to a 20 mL glass scintillation vial, 2 mL of tissue solubiliser added and the vials capped and incubated at 60° C. for at least 24 h. Radioactivity was measured following mixing of samples with Packard Ultima Gold liquid scintillation counting cocktail (2.0 mL for plasma and dose, 5.0 mL for urine and cage washings, 10 mL for feces). Counting was conducted on a Packard Tr-Carb liquid scintillation counter. Any result less than three times the background was considered less than the lower limit of quantitation not used in calculations. Plasma, urine and cage washings were counted in triplicate within 5 days of collection and were not corrected for radiochemical decay. Feces were processed as a batch at the completion of the study and the counts from these samples were corrected for radiochemical decay.

FGF-2 = FGF-2 (Homo sapiens, UniProt P09038); test: SPR based solution affinity assay, growth factor binding (FGF-2); conditions: heparin-coated sensorchip, HBS-EP buffer containing 0.3 M NaCl, 25° C.; read-out: Kd bFGF
Chain of FGF-2 (P09038 143-288, species assumed): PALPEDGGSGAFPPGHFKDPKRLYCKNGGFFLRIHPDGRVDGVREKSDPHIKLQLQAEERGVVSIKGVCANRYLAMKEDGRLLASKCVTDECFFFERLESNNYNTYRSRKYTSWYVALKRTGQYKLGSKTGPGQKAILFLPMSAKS
Protocol: as §1, §2, §3, §4, §5

Chain of FGF-1 (P05230 whole entry, species assumed): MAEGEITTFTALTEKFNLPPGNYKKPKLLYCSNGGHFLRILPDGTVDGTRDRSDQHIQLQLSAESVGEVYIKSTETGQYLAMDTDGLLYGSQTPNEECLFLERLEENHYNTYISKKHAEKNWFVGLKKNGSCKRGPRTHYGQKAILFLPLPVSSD

Substance | Kd (FGF-1) | AUC0-12 h [1] | C0 [1] | Cl* (apparent) [1] | Vd* (apparent) [1] | t1/2* (apparent) [1] | k* (apparent) [1] | Kd (FGF-2)
Benzyl Glycoside Polysulfate [PG500] | 0.00012 ± 2.5e-05 µM | 12.6 ± 1.2 μg-eq/h · mL | 20.5 ± 1.3 μg-eq/mL | 0.199 ± 0.0132 L/h/kg | 38.4 ± 3.8 mL | 49.8 ± 1.2 min | 0.836 ± 0.024 h⁻¹ | 0.086 ± 0.007 µM
Octyl Glycoside Polysulfate [PG501] | 0.000144 ± 8e-06 µM | 29.7 ± 3.4 μg-eq/h · mL | 35.6 ± 3.1 μg-eq/mL | 0.0836 ± 0.0091 L/h/kg | 22.9 ± 2.2 mL | 66 ± 5.4 min | 0.633 ± 0.053 h⁻¹ | 0.0683 ± 0.0029 µM

Source: patent US8173606B2, “Sulfated oligosaccharide derivatives” (Progen Pharmaceuticals Limited, priority 2004, dated 2012)
